# From ChEMBL document CHEMBL2424637, “Nucleophilic substitution reactions of 1,4-naphthoquinone and biologic properties of novel S-, S,S-, N-, and N,S-substituted 1,4-naphthoquinone derivatives” (2013)
# The source made the active and inactive calls. The calls are words filed in the database; no cut-off is given here.
# Key:
# Assay type in all cases: functional
# Yamadazyma tenuis [1] = experiment: Antifungal activity against Candida tenuis VKM Y-70 at 0.5% after 48 to 72 hrs by agar disk diffusion technique
# Mycobacterium [2] = experiment: Antibacterial activity against Mycobacterium luteum B-917 at 0.5% after 24 hrs by agar disk diffusion technique
# Aspergillus niger [3] = experiment: Antifungal activity against Aspergillus niger F-1119 after 24 to 72 hrs by serial dilution technique
# Mycobacterium [4] = experiment: Antibacterial activity against Mycobacterium luteum B-917 at 0.1% after 24 hrs by agar disk diffusion technique
# Aspergillus niger [5] = experiment: Antifungal activity against Aspergillus niger F-1119 at 0.1% after 48 to 72 hrs by agar disk diffusion technique
# Escherichia coli [6] = experiment: Antibacterial activity against Escherichia coli B-906 after 24 to 72 hrs by serial dilution technique
# Yamadazyma tenuis [7] = experiment: Antifungal activity against Candida tenuis VKM Y-70 after 24 to 72 hrs by serial dilution technique
# Staphylococcus aureus [8] = experiment: Antibacterial activity against Staphylococcus aureus 209-P at 0.1% after 24 hrs by agar disk diffusion technique
# Aspergillus niger [9] = experiment: Antifungal activity against Aspergillus niger F-1119 at 0.5% after 48 to 72 hrs by agar disk diffusion technique
# Escherichia coli [10] = experiment: Antibacterial activity against Escherichia coli B-906 at 0.5% after 24 hrs by agar disk diffusion technique
# Yamadazyma tenuis [11] = experiment: Antifungal activity against Candida tenuis VKM Y-70 at 0.1% after 48 to 72 hrs by agar disk diffusion technique
# Staphylococcus aureus [12] = experiment: Antibacterial activity against Staphylococcus aureus 209-P at 0.5% after 24 hrs by agar disk diffusion technique
# Staphylococcus aureus [13] = experiment: Antibacterial activity against Staphylococcus aureus 209-P after 24 to 72 hrs by serial dilution technique
# Mycobacterium [14] = experiment: Antibacterial activity against Mycobacterium luteum B-917 after 24 to 72 hrs by serial dilution technique
# Escherichia coli [15] = experiment: Antibacterial activity against Escherichia coli B-906 at 0.1% after 24 hrs by agar disk diffusion technique
Compound,diameter of the inhibition zone (DIZ) (Yamadazyma tenuis [1]) [mm],diameter of the inhibition zone (DIZ) (Mycobacterium [2]) [mm],MIC (Aspergillus niger [3]),diameter of the inhibition zone (DIZ) (Mycobacterium [4]) [mm],diameter of the inhibition zone (DIZ) (Aspergillus niger [5]) [mm],MIC (Escherichia coli [6]),MIC (Yamadazyma tenuis [7]),diameter of the inhibition zone (DIZ) (Staphylococcus aureus [8]) [mm],diameter of the inhibition zone (DIZ) (Aspergillus niger [9]) [mm],diameter of the inhibition zone (DIZ) (Escherichia coli [10]) [mm],diameter of the inhibition zone (DIZ) (Yamadazyma tenuis [11]) [mm],diameter of the inhibition zone (DIZ) (Staphylococcus aureus [12]) [mm],MIC (Staphylococcus aureus [13]),MIC (Mycobacterium [14]),diameter of the inhibition zone (DIZ) (Escherichia coli [15]) [mm]
O=C1C(Sc2c(Cl)c(Cl)c(Cl)c(Cl)c2Cl)=C(N2CCOCC2)C(=O)c2ccccc21,0,0,inactive,0,0,inactive,inactive,0,0,0,0,0,inactive,inactive,0
CC1CCC(C(C)(C)SC2=C(SC(C)(C)C3CCC(C)CC3=O)C(=O)c3ccccc3C2=O)C(=O)C1 (stereo not given),7.4,0,500 µg/mL,0,0,inactive,inactive,0,6,0,0,0,inactive,500 µg/mL,0
CCCCOC(=O)CCSC1=C(Sc2c(Cl)c(Cl)c(Cl)c(Cl)c2Cl)C(=O)c2ccccc2C1=O,0,0,inactive,0,0,inactive,inactive,0,6,0,0,0,inactive,125 µg/mL,0
COC(=O)CCSC1=C(Sc2c(Cl)c(Cl)c(Cl)c(Cl)c2Cl)C(=O)c2ccccc2C1=O,0,10.7,inactive,6,0,inactive,62.5 µg/mL,0,0,0,0,0,250 µg/mL,15.6 µg/mL,0
CCCCOC(=O)CCSC1=C(SCCC(=O)OCCCC)C(=O)c2ccccc2C1=O,0,0,inactive,0,0,inactive,inactive,0,6,0,0,0,inactive,inactive,0
